Publication PMC5423611, “An activity-integrated strategy of the identification, screening and determination of potential neuraminidase inhibitors from Radix Scutellariae” (PLoS ONE, 2017)
In brackets after ≈: the same amount, converted by molar mass.

Target: T1, neuraminidase (NA), neuraminidase inhibitors screen kit
T1 construct: enzyme of a commercial Beyotime screening kit
Type: biochemical
Conditions: not given

Structure (SMILES) | IC50
O=C(O)[C@H]1O[C@@H](Oc2cc3oc(-c4ccc(O)cc4)cc(=O)c3c(O)c2O)[C@H](O)[C@@H](O)[C@@H]1O [compound 5, scutellarin] | 321.8 ± 62.8 µg/mL (≈ 696 µM)

Same assay, conditions: 2'-(4-methylumbelliferyl)-alpha-D-N-acetylneuraminic acid substrate; 37 °C; 30 min

Structure (SMILES) | IC50
COc1c(O[C@@H]2O[C@H](C(=O)O)[C@@H](O)[C@H](O)[C@H]2O)cc(O)c2c(=O)cc(-c3ccccc3)oc12 [compound 19, wogonoside] | 428.3 ± 18.9 µg/mL (≈ 930 µM)
O=c1cc(-c2ccccc2)oc2cc(O)cc(O)c12 [compound 24, chrysin] | 402.80 ± 67.8 µg/mL (≈ 1580 µM)
O=C(O)[C@H]1O[C@@H](Oc2cc(O)c3c(=O)cc(-c4ccccc4)oc3c2)[C@H](O)[C@@H](O)[C@@H]1O [compound 15, chrysin-7-O-glucuronide] | 493.6 ± 64.2 µg/mL (≈ 1150 µM)
COc1c(O)cc(O)c2c(=O)cc(-c3ccccc3)oc12 [compound 23, wogonin] | 331.1 ± 49.4 µg/mL (≈ 1160 µM)
O=c1cc(-c2ccccc2)oc2cc(O)c(O)c(O)c12 [compound 22, baicalein] | 397.7 ± 9.91 µg/mL (≈ 1470 µM)
O=c1cc(-c2ccc(O)cc2)oc2cc(O)c(O)c(O)c12 [compound 10, scutellarein] | 664.5 ± 26.2 µg/mL (≈ 2320 µM)
COc1c(O)cc2oc(-c3ccccc3)cc(=O)c2c1O [compound 25, oroxylin A] | > 1000 µg/mL
O=C(O)[C@H]1O[C@@H](Oc2cc3oc(-c4ccccc4)cc(=O)c3c(O)c2O)[C@H](O)[C@@H](O)[C@@H]1O [compound 11, baicalin] | 267.3 ± 37.8 µg/mL (≈ 599 µM)
